In PMC6402191 (Clinical and Translational Science, 2017):
Read-outs that look alike come from different tables or passages of the source.

Assays:
MATE2-K = MATE2-K (Homo sapiens, UniProt Q86VL8); test: Uptake of baricitinib into MATE2-K-transfected HEK cells; assay type: in vitro ADME
P-gp = P-gp (Homo sapiens, UniProt P08183); test: Bidirectional transport of baricitinib in MDCK-MDR1 cells; assay type: in vitro ADME
BCRP = target: T1, BCRP (Homo sapiens, UniProt Q9UNQ0); test: Bidirectional transport of baricitinib in MDCK-BCRP cells; assay type: in vitro ADME
T1 sequence (Q9UNQ0 1-655): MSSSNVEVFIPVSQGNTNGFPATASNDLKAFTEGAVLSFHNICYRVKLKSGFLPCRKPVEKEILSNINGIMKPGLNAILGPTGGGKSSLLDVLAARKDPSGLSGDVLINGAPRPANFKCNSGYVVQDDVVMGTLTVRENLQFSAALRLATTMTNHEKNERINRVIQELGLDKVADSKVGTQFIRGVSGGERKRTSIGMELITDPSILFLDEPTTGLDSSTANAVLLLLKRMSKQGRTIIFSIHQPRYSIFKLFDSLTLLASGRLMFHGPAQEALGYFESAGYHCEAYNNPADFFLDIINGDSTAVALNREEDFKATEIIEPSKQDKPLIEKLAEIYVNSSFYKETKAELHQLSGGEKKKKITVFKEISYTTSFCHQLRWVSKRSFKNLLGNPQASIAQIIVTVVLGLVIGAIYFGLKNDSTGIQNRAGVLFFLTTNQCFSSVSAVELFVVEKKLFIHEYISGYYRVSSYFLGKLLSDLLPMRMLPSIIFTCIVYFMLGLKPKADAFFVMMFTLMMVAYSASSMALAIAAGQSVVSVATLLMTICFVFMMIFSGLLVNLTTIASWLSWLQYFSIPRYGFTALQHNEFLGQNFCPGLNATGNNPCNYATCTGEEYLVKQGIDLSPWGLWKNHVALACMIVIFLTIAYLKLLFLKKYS

OCT1 = target: T2, OCT1 (Homo sapiens, UniProt O15245); test: Baricitinib substrate study in OCT1-transfected HEK-PEAK cells; assay type: in vitro ADME
T2 sequence (O15245 1-554): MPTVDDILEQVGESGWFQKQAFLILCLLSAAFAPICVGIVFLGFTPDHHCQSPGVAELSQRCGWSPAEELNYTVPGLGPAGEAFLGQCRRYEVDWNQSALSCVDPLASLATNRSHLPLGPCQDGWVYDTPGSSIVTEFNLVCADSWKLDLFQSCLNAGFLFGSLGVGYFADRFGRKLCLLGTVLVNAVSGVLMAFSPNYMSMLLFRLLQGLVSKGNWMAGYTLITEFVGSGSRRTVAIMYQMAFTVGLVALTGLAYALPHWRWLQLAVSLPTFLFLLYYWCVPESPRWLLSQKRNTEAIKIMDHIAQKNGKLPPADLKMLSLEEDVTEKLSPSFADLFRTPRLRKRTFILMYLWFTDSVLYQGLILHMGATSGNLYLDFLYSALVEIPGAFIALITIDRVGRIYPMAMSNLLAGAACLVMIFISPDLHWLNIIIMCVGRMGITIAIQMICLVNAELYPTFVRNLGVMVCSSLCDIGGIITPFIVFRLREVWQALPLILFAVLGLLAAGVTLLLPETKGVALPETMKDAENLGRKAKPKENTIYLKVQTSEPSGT

OATP1B3 = target: T3, OATP1B3 (Homo sapiens, UniProt Q9NPD5); test: Baricitinib substrate study in OATP1B3-transfected HEK-PEAK cells; assay type: in vitro ADME
T3 sequence (Q9NPD5 1-702): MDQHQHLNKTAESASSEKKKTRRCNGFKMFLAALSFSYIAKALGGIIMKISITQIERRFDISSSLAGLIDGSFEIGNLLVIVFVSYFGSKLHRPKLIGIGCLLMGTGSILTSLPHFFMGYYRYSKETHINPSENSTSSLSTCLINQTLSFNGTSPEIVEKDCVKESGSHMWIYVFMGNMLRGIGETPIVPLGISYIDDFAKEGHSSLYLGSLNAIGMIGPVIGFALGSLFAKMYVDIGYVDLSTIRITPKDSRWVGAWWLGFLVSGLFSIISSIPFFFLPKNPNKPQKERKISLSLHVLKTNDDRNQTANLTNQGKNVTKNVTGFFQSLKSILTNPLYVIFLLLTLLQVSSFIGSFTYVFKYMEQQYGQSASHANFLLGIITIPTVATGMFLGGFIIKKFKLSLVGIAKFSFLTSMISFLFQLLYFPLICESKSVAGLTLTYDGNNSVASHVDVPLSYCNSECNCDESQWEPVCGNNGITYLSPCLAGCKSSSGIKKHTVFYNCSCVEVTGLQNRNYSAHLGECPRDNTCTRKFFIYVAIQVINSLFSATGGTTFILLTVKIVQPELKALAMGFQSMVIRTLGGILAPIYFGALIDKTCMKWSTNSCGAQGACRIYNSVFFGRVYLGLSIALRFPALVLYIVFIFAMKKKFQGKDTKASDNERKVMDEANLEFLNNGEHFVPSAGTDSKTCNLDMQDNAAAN

OAT3 = target: T4, OAT3 (Homo sapiens, UniProt Q8TCC7); test: PBPK DDI simulations of baricitinib with OAT3 inhibitors
T4 sequence (Q8TCC7 1-542): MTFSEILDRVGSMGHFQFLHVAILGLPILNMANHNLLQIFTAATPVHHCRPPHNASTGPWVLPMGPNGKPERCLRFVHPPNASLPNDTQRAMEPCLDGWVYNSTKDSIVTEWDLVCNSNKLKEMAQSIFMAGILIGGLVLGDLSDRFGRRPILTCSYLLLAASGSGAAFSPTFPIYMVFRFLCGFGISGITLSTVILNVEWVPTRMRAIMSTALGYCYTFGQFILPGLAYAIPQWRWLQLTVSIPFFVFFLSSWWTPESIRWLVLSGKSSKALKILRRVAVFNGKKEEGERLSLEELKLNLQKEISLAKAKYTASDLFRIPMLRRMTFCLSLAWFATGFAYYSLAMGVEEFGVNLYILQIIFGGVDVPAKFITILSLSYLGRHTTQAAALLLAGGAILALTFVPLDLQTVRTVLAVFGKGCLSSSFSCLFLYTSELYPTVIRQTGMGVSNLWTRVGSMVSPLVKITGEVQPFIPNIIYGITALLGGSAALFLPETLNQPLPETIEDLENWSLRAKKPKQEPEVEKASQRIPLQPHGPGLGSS

[1] = Physicochemical input parameters
Plasma protein binding = assay type: in vitro ADME; details: human
[2] = Pharmacokinetic input parameters of the PBPK models; assay type: in vivo, human; details: fitted to match clinical data
[3] = cited from earlier work

Sequence of P-gp (P08183 whole entry): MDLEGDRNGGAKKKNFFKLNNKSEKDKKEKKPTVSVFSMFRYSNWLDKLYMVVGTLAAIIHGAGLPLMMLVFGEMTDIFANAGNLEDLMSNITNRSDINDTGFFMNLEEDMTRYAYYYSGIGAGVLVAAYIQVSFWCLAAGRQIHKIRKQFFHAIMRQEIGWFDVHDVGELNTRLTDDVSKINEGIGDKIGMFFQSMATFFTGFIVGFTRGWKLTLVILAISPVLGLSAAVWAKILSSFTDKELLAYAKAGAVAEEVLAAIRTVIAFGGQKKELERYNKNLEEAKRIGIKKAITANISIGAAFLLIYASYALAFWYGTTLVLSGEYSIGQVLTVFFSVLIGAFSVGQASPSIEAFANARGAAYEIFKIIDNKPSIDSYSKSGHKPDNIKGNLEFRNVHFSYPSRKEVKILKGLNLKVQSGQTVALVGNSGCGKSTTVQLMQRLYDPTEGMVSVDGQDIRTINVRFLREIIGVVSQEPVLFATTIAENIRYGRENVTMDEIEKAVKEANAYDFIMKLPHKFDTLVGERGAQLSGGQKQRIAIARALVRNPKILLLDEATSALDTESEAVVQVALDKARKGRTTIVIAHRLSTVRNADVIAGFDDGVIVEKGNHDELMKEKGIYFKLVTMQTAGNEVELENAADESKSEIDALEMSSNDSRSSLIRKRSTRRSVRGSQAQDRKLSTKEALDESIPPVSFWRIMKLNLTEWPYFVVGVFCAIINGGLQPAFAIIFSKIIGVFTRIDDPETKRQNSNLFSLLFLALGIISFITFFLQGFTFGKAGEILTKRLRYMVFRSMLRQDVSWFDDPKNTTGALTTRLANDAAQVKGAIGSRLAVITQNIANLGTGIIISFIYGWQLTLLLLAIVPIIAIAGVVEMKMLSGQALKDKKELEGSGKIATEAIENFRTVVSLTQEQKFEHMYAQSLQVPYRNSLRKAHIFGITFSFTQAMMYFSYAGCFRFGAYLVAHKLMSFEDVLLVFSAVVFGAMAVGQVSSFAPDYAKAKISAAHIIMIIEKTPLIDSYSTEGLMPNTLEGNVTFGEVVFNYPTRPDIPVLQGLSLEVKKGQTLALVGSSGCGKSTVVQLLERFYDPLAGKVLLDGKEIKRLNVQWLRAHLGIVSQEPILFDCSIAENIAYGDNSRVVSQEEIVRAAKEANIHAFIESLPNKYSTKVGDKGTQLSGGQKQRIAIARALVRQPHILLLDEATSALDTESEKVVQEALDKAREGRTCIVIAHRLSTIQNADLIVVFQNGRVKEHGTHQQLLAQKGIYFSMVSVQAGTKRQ
Sequence of MATE2-K (Q86VL8 1-566 isoform Q86VL8-3): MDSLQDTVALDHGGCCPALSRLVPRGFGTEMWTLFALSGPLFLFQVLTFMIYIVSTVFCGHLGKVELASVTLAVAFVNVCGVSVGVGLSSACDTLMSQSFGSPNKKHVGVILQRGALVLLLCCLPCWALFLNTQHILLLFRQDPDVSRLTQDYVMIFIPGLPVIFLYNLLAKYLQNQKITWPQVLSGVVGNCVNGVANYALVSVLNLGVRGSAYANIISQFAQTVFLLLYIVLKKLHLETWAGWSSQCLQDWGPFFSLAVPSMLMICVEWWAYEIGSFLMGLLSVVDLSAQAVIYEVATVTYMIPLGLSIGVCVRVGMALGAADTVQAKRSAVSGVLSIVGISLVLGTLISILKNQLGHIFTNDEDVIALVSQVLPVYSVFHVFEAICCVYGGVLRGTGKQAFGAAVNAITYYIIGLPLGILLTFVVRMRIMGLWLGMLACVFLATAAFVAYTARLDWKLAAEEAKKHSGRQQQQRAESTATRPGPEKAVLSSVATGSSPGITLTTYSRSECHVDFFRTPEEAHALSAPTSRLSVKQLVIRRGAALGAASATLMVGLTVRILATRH

MATE2-K substrate (MATE2-K): substrate of MATE2‐K
MATE2‐K Vmax (MATE2-K): 1315 ± 129 pmol/min/mg protein
Uptake into MATE2-K cells relative to control cells (MATE2-K; 0.5 min): approximately three times greater
MATE2‐K Vmax (MATE2-K; PBPK input): 657.5 pmol/min/10^6 cells
P-gp substrate (P-gp): P‐gp substrate
Papp at 5 μM (P-gp; dog, MDCK): 6.6 ×10⁻⁶ cm/s
Papp A→B at 5 µM (P-gp; dog, MDCK-MDR1): 0.9 ×10⁻⁶ cm/s
Papp B→A at 5 µM (P-gp; dog, MDCK-MDR1): 35.2 ×10⁻⁶ cm/s
BCRP substrate (BCRP): substrate of BCRP
Papp A→B at 5 µM (BCRP; dog): 0.83 ×10⁻⁶ cm/s
Papp B→A at 5 µM (BCRP; dog): 10.1 ×10⁻⁶ cm/s
OCT1 substrate (OCT1): not a substrate
OATP1B3 substrate (OATP1B3): not a substrate
Observed/Predicted AUC ratio +/- probenecid (OAT3): 1.0
Observed/Predicted Cmax ratio +/- probenecid (OAT3): 0.9
pKa [1]: 4
fraction unbound (Plasma protein binding): 0.5
ka (first-order absorption rate constant) [2]: 1.2 h^‐1
Compound: CCS(=O)(=O)N1CC(CC#N)(n2cc(-c3ncnc4[nH]ccc34)cn2)C1 [Baricitinib]
eliminated unchanged in urine [3]: 70 % of dose
renal clearance [3]: ~11 L/h
decrease in renal secretory clearance with cyclosporine ([3]; single 600 mg dose of cyclosporine): 30%
